Experimental findings from ChEMBL document CHEMBL1201862, “PubChem BioAssay data set” (2004) are described below.

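Where inhibition never reached the appropriate level, the endpoint shown equals the highest concentration tested. Otherwise, values were interpolated linearly from a five-concentration, 48-hour dose response in 96-well plates. At the GI50, growth is halved.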 Calls of active or inactive are those of the source. Cut-off read from the data, not from the text of the source: active = GI50 up to about 1.1 µM and inactive = higher.

Test systems include LOX IMVI; RPMI-8226; SK-MEL-28; KM12; NCI-H522; A549; MOLT-4; COLO 205; Hs-578T; UACC-62; UO-31; MDA-MB-231; Malme-3M; PC-3; SK-MEL-5; MCF7; NCI-H23; SN12C; OVCAR-5; SK-OV-3.
Experiment in all cases: NCI-60 cell line screen, 48 h

With `COc1ccccc1Nc1nc(N)nc(N)c1N=O`, the GI50 with LOX IMVI, in the experiment with RPMI-8226, with SK-MEL-28, in the experiment on KM12, in the experiment on NCI-H522 and with A549 was > 100 µM (inactive) throughout. For the same molecule, the GI50 with MOLT-4, with COLO 205, with Hs-578T, in the experiment on UACC-62, in the experiment with UO-31 and with MDA-MB-231 was > 100 µM (inactive) each time. The GI50 with Malme-3M, in the experiment with PC-3, in the experiment on SK-MEL-5, with MCF7, with NCI-H23 and in the experiment on SN12C was > 100 µM (inactive) throughout. The GI50 in the experiment on OVCAR-5 and in the experiment with SK-OV-3 was > 100 µM (inactive) in each case.

As for `O=C(O)C1=C(C(=O)O)N(c2ccncc2)C(c2ccco2)=CC1c1ccccc1[N+](=O)[O-]` (stereo not given), the GI50 in the experiment with LOX IMVI is 2.01 µM (inactive); in the experiment with RPMI-8226, 2.79 µM (inactive); with SK-MEL-28, 16.2 µM (inactive); in the experiment on KM12, 1.62 µM (inactive); with NCI-H522, 1.77 µM (inactive); in the experiment with A549, 16.2 µM (inactive). Besides, the GI50 is 3.44 µM (inactive) in the experiment on MOLT-4; 14.2 µM (inactive) in the experiment with COLO 205; 16.7 µM (inactive) in the experiment on Hs-578T; 15.3 µM (inactive) with UACC-62; 8.26 µM (inactive) in the experiment with UO-31; 14.2 µM (inactive) in the experiment with MDA-MB-231. Moreover, the GI50 is 0.925 µM (active) in the experiment on Malme-3M; 13.4 µM (inactive) in the experiment on PC-3; 5.82 µM (inactive) in the experiment on SK-MEL-5; 2.65 µM (inactive) with MCF7; 12.4 µM (inactive) with NCI-H23; 13.1 µM (inactive) in the experiment on SN12C. The GI50 in the experiment on OVCAR-5 is 15 µM (inactive); with SK-OV-3 it was 18 µM (inactive).

For `CCCCOC(=O)C(NC(C(=O)OCCCC)c1cc(C(C)(C)C)c(O)c(C(C)(C)C)c1)c1cc(C(C)(C)C)c(O)c(C(C)(C)C)c1` (stereo not given), the GI50 in the experiment with LOX IMVI was > 100 µM (inactive); in the experiment on RPMI-8226 it was 31.5 µM (inactive); with SK-MEL-28, > 100 µM (inactive); in the experiment on KM12 it was > 100 µM (inactive); in the experiment with NCI-H522, > 100 µM (inactive); in the experiment on A549, > 100 µM (inactive). In addition, the GI50 in the experiment on MOLT-4 is 75 µM (inactive); in the experiment on COLO 205, > 100 µM (inactive); with Hs-578T, > 100 µM (inactive); with UACC-62, > 100 µM (inactive); in the experiment with UO-31, 74.6 µM (inactive); with MDA-MB-231, > 100 µM (inactive). For the same molecule, the GI50 in the experiment with Malme-3M, with PC-3, in the experiment with SK-MEL-5, in the experiment with MCF7, with NCI-H23 and with SN12C was > 100 µM (inactive) in each case. Moreover, the GI50 with OVCAR-5 and in the experiment on SK-OV-3 was > 100 µM (inactive) in each case.

Turning to `O=[N+]([O-])c1cccc(/C=N/NC2=CS(=O)(=O)C=C2)c1`, the GI50 with LOX IMVI, in the experiment on RPMI-8226, in the experiment with SK-MEL-28, in the experiment with KM12, in the experiment with NCI-H522 and in the experiment with A549 was > 100 µM (inactive) each time. For the same molecule, the GI50 in the experiment with MOLT-4, in the experiment with COLO 205, in the experiment with Hs-578T, in the experiment with UACC-62, with UO-31 and in the experiment with MDA-MB-231 was > 100 µM (inactive) each time. Besides, the GI50 in the experiment with Malme-3M, in the experiment with PC-3, in the experiment on SK-MEL-5, in the experiment with MCF7, in the experiment on NCI-H23 and in the experiment on SN12C was > 100 µM (inactive) in each case. For the same molecule, the GI50 in the experiment with OVCAR-5 and in the experiment with SK-OV-3 was > 100 µM (inactive) each time.

As to `COC(=O)Nc1nc2cc(NS(=O)(=O)c3ccc(F)cc3)ccc2[nH]1`, the GI50 in the experiment on LOX IMVI is 48.1 µM (inactive); with RPMI-8226 it was 15 µM (inactive); in the experiment with SK-MEL-28 it was 9.75 µM (inactive); with KM12 it was 4.43 µM (inactive); with NCI-H522, 2.1 µM (inactive); in the experiment with A549, 37.2 µM (inactive). Further, the GI50 in the experiment on MOLT-4 is 6.75 µM (inactive); in the experiment on COLO 205, 5.25 µM (inactive); in the experiment on Hs-578T, 2.07 µM (inactive); in the experiment on UACC-62, 9.23 µM (inactive); in the experiment on UO-31, 37.6 µM (inactive); in the experiment with MDA-MB-231 it was 21.9 µM (inactive). Also, the GI50 with Malme-3M was 7.5 µM (inactive); in the experiment with PC-3, 22.9 µM (inactive); with SK-MEL-5 it was 5.77 µM (inactive); in the experiment with MCF7 it was 4.57 µM (inactive); in the experiment with NCI-H23, 21.8 µM (inactive); with SN12C, 68.9 µM (inactive). Further, the GI50 in the experiment on OVCAR-5 is 45.2 µM (inactive); in the experiment on SK-OV-3, 13.1 µM (inactive).

As to `COc1cc2c(c(OC)c1OC)C(=O)[C@@H]1[C@H]2N1C(=O)NCCCl`, the GI50 was 39.3 µM (inactive) in the experiment on LOX IMVI; 70 µM (inactive) in the experiment on RPMI-8226; > 100 µM (inactive) with SK-MEL-28; 53.3 µM (inactive) in the experiment on KM12; 49.2 µM (inactive) in the experiment with NCI-H522; 58.2 µM (inactive) in the experiment with A549. For the same molecule, the GI50 was 50.7 µM (inactive) with MOLT-4; 27 µM (inactive) in the experiment with COLO 205; 61.2 µM (inactive) in the experiment on Hs-578T; 61.4 µM (inactive) in the experiment on UACC-62; 73.5 µM (inactive) in the experiment with UO-31; > 100 µM (inactive) in the experiment with MDA-MB-231. The GI50 in the experiment with Malme-3M was 64.7 µM (inactive); with PC-3, 58.2 µM (inactive); in the experiment with SK-MEL-5 it was 46.8 µM (inactive); in the experiment with MCF7 it was 27.6 µM (inactive); with NCI-H23 it was 43.4 µM (inactive); with SN12C it was 54.7 µM (inactive). Moreover, the GI50 with OVCAR-5 and with SK-OV-3 was > 100 µM (inactive) each time.

For the molecule `CCOC(=O)c1c(N2CCOCC2)[nH]c(=O)c(C(c2ccc(Cl)c([N+](=O)[O-])c2)c2c(O)c(C(=O)OCC)c(N3CCOCC3)[nH]c2=O)c1O`, the GI50 was 19.5 µM (inactive) in the experiment on LOX IMVI; 26.7 µM (inactive) in the experiment with RPMI-8226; 42.6 µM (inactive) in the experiment with SK-MEL-28; > 100 µM (inactive) in the experiment with KM12; 28 µM (inactive) with NCI-H522; > 100 µM (inactive) in the experiment with A549. In addition, the GI50 is 25.2 µM (inactive) in the experiment with MOLT-4; > 100 µM (inactive) in the experiment with COLO 205; > 100 µM (inactive) in the experiment on Hs-578T; 40.1 µM (inactive) in the experiment with UACC-62; 34 µM (inactive) with UO-31; 15.2 µM (inactive) in the experiment with MDA-MB-231. Besides, the GI50 in the experiment on Malme-3M is 41.4 µM (inactive); in the experiment with PC-3 it was 14.2 µM (inactive); in the experiment with SK-MEL-5, 24.3 µM (inactive); in the experiment on MCF7 it was 22 µM (inactive); in the experiment with NCI-H23, 25.8 µM (inactive); in the experiment with SN12C it was 20.5 µM (inactive). For the same molecule, the GI50 with OVCAR-5 and in the experiment with SK-OV-3 was > 100 µM (inactive) throughout.

In the case of `CC(=O)Nc1ccc2c(c1)/C(=C\c1ccc([N+](C)(C)C)cc1)c1ccccc1-2`, the GI50 in the experiment with LOX IMVI was 47.9 µM (inactive); with RPMI-8226 it was 24.9 µM (inactive); in the experiment on SK-MEL-28, 35.5 µM (inactive); in the experiment on KM12, 31.9 µM (inactive); in the experiment with NCI-H522, 32.9 µM (inactive); in the experiment on A549, 33.7 µM (inactive). The GI50 in the experiment with MOLT-4 was 32.9 µM (inactive); with COLO 205 it was 18 µM (inactive); in the experiment with Hs-578T, 35.4 µM (inactive); with UACC-62, 48 µM (inactive); in the experiment with UO-31, 29.6 µM (inactive); in the experiment with MDA-MB-231 it was 4.43 µM (inactive). In addition, the GI50 in the experiment with Malme-3M was 39.3 µM (inactive); in the experiment with PC-3 it was 19.9 µM (inactive); in the experiment on SK-MEL-5 it was 24.2 µM (inactive); with MCF7, 32 µM (inactive); in the experiment on NCI-H23, 64.4 µM (inactive); in the experiment on SN12C, 31 µM (inactive). Besides, the GI50 is 18.8 µM (inactive) in the experiment on OVCAR-5 and 61.7 µM (inactive) in the experiment with SK-OV-3.

For `O=C1c2c(Br)sc(Br)c2[C@@H](NC(=O)C(F)(F)F)C1Br` (stereo not given in full), the GI50 in the experiment on LOX IMVI was 1.57 µM (inactive); in the experiment with RPMI-8226 it was 2.33 µM (inactive); with SK-MEL-28, 3.05 µM (inactive); in the experiment with KM12, 5.66 µM (inactive); in the experiment with NCI-H522, 2.03 µM (inactive); in the experiment with A549, 17.1 µM (inactive). The GI50 in the experiment with MOLT-4 is 2.2 µM (inactive); in the experiment on COLO 205 it was 2.01 µM (inactive); in the experiment with Hs-578T, 7.94 µM (inactive); with UACC-62, 3.66 µM (inactive); in the experiment with UO-31, 5.92 µM (inactive); in the experiment with MDA-MB-231, 2.79 µM (inactive). The GI50 in the experiment with Malme-3M is 2.24 µM (inactive); in the experiment with PC-3, 4.3 µM (inactive); in the experiment on SK-MEL-5 it was 2.8 µM (inactive); in the experiment with MCF7, 5.71 µM (inactive); with NCI-H23, 2.53 µM (inactive); in the experiment with SN12C, 2.72 µM (inactive). The GI50 is 10.7 µM (inactive) with OVCAR-5 and 18.7 µM (inactive) in the experiment on SK-OV-3.

As to `C[n+]1c(-c2ccc(NC(=O)c3ccc(C(=O)Nc4ccc(-c5cn6ccccc6[n+]5C)cc4)cc3)cc2)cn2ccccc21`, the GI50 in the experiment with LOX IMVI is > 100 µM (inactive); in the experiment on RPMI-8226 it was 14.3 µM (inactive); in the experiment with SK-MEL-28, > 100 µM (inactive); with KM12, > 82.6 µM (inactive); in the experiment with NCI-H522 it was > 100 µM (inactive); in the experiment on A549, > 100 µM (inactive). In addition, the GI50 was > 67.9 µM (inactive) in the experiment with MOLT-4; > 56.2 µM (inactive) with COLO 205; > 100 µM (inactive) with Hs-578T; > 100 µM (inactive) in the experiment on UACC-62; > 100 µM (inactive) in the experiment on UO-31; > 42.9 µM (inactive) in the experiment with MDA-MB-231. Further, the GI50 was 56.5 µM (inactive) in the experiment with Malme-3M; > 100 µM (inactive) in the experiment on PC-3; 43.1 µM (inactive) in the experiment with SK-MEL-5; > 75 µM (inactive) in the experiment on MCF7; > 100 µM (inactive) in the experiment with NCI-H23; > 66.1 µM (inactive) with SN12C. For the same molecule, the GI50 in the experiment with OVCAR-5 and in the experiment on SK-OV-3 was > 100 µM (inactive) throughout.
